Laboratory results as given in patent publication US8178506B2, “Oligomeric compounds and compositions for use in modulation of small non-coding RNAs” (Regulus Therapeutics Inc., priority 2003, dated 2012).
In the oligonucleotide strings, read from the 5' end, every base follows the letter of its sugar. An asterisk marks phosphorothioate; unmarked linkages are phosphodiester. Other units and linkages are bracketed, terminal groups are in braces. A string of capitals states the bases alone. e = 2'-O-(2-methoxyethyl) (MOE); [5mC] = 5-methylcytosine

Legend:
IL-12 mRNA = IL-12 mRNA in LPS-activated primary murine macrophages; type: cell-based, mouse; details: for IL-12 mRNA expression, −IFN % UTC: 300 nM oligomeric compound and LPS, no IFN-gamma pretreatment, single experiment; for IL-12 mRNA expression, −IFN % UTC / IL-12 mRNA expression, +IFN % UTC: normalized to LPS-treated cells without oligomeric compound; for IL-12 mRNA expression, +IFN % UTC: 300 nM oligomeric compound, stimulation with IFN-gamma and LPS, average of 2 experiments; for IL-12 mRNA expression, % UTC: LPS, average of 3 treatments
IGFBP-1 = IGFBP-1 mRNA expression in HepG2 cells; type: cell-based, human; details: for IGFBP-1 (% UTC): HepG2, 100 nM oligomeric compound; for IGFBP1 mRNA expression: Experiment 2, insulin treated: HepG2 cells transfected with oligomeric compound, 1 nM insulin for four hours, UTC + 1 nM insulin = 100; for IGFBP1 mRNA: HepG2 cells, four hours, UTC = 100
follistatin = experiment: Follistatin mRNA expression in HepG2 cells; type: cell-based, human; details: for Follistatin (% UTC): HepG2, 100 nM oligomeric compound; for Follistatin mRNA expression: Experiment 2, insulin treated: HepG2 cells transfected with oligomeric compound, 1 nM insulin for four hours, UTC + 1 nM insulin = 100; for Follistatin mRNA: HepG2 cells, four hours, UTC = 100
[1] = Experiment 1, basal (no insulin)
[2] = Experiment 2, 1 nM insulin treated

Substance | IL-12 mRNA expression, −IFN % UTC (IL-12 mRNA) | IL-12 mRNA expression, +IFN % UTC (IL-12 mRNA) | IGFBP-1 (% UTC) (IGFBP-1; [1]) | IGFBP-1 (% UTC) (IGFBP-1; [2]) | Follistatin (% UTC) (follistatin; [1]) | Follistatin (% UTC) (follistatin; [2]) | IGFBP1 mRNA expression (IGFBP-1) | IGFBP1 mRNA (IGFBP-1; [1]) | Follistatin mRNA expression (follistatin) | Follistatin mRNA (follistatin; [1]) | IL-12 mRNA expression, % UTC (IL-12 mRNA; 75 nM, +IFN) | IL-12 mRNA expression, % UTC (IL-12 mRNA; 75 nM, −IFN) | IL-12 mRNA expression, % UTC (IL-12 mRNA; 150 nM, +IFN) | IL-12 mRNA expression, % UTC (IL-12 mRNA; 150 nM, −IFN) | IL-12 mRNA expression, % UTC (IL-12 mRNA; 300 nM, +IFN) | IL-12 mRNA expression, % UTC (IL-12 mRNA; 300 nM, −IFN) | IL-12 mRNA expression, % UTC (IL-12 mRNA; 600 nM, +IFN) | IL-12 mRNA expression, % UTC (IL-12 mRNA; 600 nM, −IFN)
327903 (antisense eA*eA*e[5mC]*eT*eA*eT*eA*e[5mC]*eA*eA*e[5mC]*e[5mC]*eT*eA*e[5mC]*eT*eA*e[5mC]*e[5mC]*eT*e[5mC]*eA) [compound 327903] | 200 % UTC | 23 % UTC | 71 % UTC | 81 % UTC | 60 % UTC | 89 % UTC | – | – | – | – | – | – | – | – | – | – | – | –
327913 (antisense eA*eA*e[5mC]*e[5mC]*eG*eA*eT*eT*eT*e[5mC]*eA*eA*eA*eT*eG*eG*eT*eG*e[5mC]*eT*eA*eG) [compound 327913] | 276 % UTC | 73 % UTC | 123 % UTC | 147 % UTC | 115 % UTC | 123 % UTC | – | – | – | – | – | – | – | – | – | – | – | –
327919 (antisense eG*eA*eA*eA*e[5mC]*e[5mC]*e[5mC]*eA*eG*e[5mC]*eA*eG*eA*e[5mC]*eA*eA*eT*eG*eT*eA*eG*e[5mC]*eT) [compound 327919] | 179 % UTC | 37 % UTC | 96 % UTC | 154 % UTC | 74 % UTC | 178 % UTC | – | – | – | – | – | – | – | – | – | – | – | –
327920 (antisense eG*eA*eG*eA*e[5mC]*e[5mC]*e[5mC]*eA*eG*eT*eA*eG*e[5mC]*e[5mC]*eA*eG*eA*eT*eG*eT*eA*eG*e[5mC]*eT) [compound 327920] | 171 % UTC | 68 % UTC | – | – | – | – | 267 | 165 | 102 | 99 | – | – | – | – | – | – | – | –
327923 (antisense eG*eA*eA*eA*eG*eA*eG*eA*e[5mC]*e[5mC]*eG*eG*eT*eT*e[5mC]*eA*e[5mC]*eT*eG*eT*eG*eA) [compound 327923] | 269 % UTC | 134 % UTC | – | – | – | – | 119 | 116 | 106 | 86 | – | – | – | – | – | – | – | –
327925 (antisense eT*eA*eG*e[5mC]*eT*eG*eG*eT*eT*eG*eA*eA*eG*eG*eG*eG*eA*e[5mC]*e[5mC]*eA*eA) [compound 327925] | 302 % UTC | 60 % UTC | 152 % UTC | 166 % UTC | 110 % UTC | 148 % UTC | – | – | – | – | – | – | – | – | – | – | – | –
327941 (antisense eA*eA*e[5mC]*e[5mC]*e[5mC]*eA*e[5mC]*e[5mC]*eG*eA*e[5mC]*eA*eG*e[5mC]*eA*eA*eT*eG*eA*eA*eT*eG*eT*eT) [compound 327941] | 89 % UTC | 34 % UTC | 83 % UTC | 80 % UTC | 80 % UTC | 68 % UTC | – | – | – | – | 4 % UTC | 49 % UTC | 2 % UTC | 45 % UTC | 3 % UTC | 34 % UTC | 3 % UTC | 41 % UTC
341800 (antisense AAGCCCAAAAGGAGAAUUCUUUG; all 2'-MOE, all phosphorothioate, methylation of C and T or U not given here) [compound 341800] | 180 % UTC | 100 % UTC | – | – | – | – | – | 114 | – | 105 | – | – | – | – | – | – | – | –
